Assay results taken from patent publication US8865775B2, “Anti-inflammatory agent and cancer-preventive agent comprising canolol or prodrug thereof and pharmaceutical, cosmetic and food comprising the same” (priority 2004, dated 2014).

What was measured:
[1] = system: gastric carcinoma in Mongolian gerbils; assay: Suppression of gastric carcinogenesis in gerbils infected with H. pylori and treated with MNU; type: in vivo
Text: They were divided into two groups: one was fed with AIN-93G diet for mice containing 0.1% of canolol (“canolol-fed group”); the other was fed with the same diet compositions without canolol. […] Ten gerbils per group were examined.
Thin slices obtained from the paraffin blocks were examined with HE (hematoxyline eosin) staining under microscope.

[2] = Half-life in the culture medium; type: physicochemical
Text: (§1) At the inflammatory site, peroxynitrite (ONOO^−) is excessively generated as a result of inflammatory reaction, and toxic effect thereof to living cells is one of the cause of pathogenesis. It was anticipated that canolol would exert protective effects against said toxicity of ONOO^− to cultured cells.

cycloxygenase-2 (COX-2) = assay: Induction of COX-2 in gastric lesions infected with H. pylori, immunostaining; type: in vivo, Mongolian gerbils; conditions: immunostaining quantification, 12 weeks, n = 10
Text: (§2) The six-week old Mongolian gerbils were given drinking water with 10 ppm of MNU (a carcinogen N-methylnitrosourea) for one week followed by oral infection with Helicobacter pylori ATCC 43504 strain, or were orally infected with 1×10^8 CFU of H. pylori and 10 ppm of MNU were then given for one week. They were divided into two groups: one was fed with AIN-93G diet for mice containing 0.1% of canolol (“canolol-fed group”); the other was fed with the same diet compositions without canolol. The experiment was continued for up to 52 weeks (X. Cao et al, Jpn. J. Cancer Res., 93, 1293-1298 (2002), N. Shimizu, et al, Cancer Res., 60, 1512-1514 (2000)). Ten gerbils per group were examined.
(§3) The expression levels of both enzymes were quantified by means of enzyme antibody using the specimens of Example (1) prepared 12 weeks after administration according to Example (2) . Both COX-2 and iNOS induced during inflammation are typical enzymes to onset an inflammation reaction. Namely, COX-2 produces prostanoid inflammatory mediators such as prostaglandin E2, and iNOS produces nitric oxide (NO), where these mediators and NO evokes inflammation. Both superoxide (O2^−) and NO produced at the site of inflammation immediately react with each other and form more reactive peroxynitrite (ONOO^−) (described later).

[3] = system: Mongolian gerbils infected with Helicobacter pylori ATCC 43504; assay: Suppression of gastritis in Mongolian gerbils infected with H. pylori and given MNU (pathology of excised stomach); type: in vivo; conditions: diet containing 0.1% canolol for 12 weeks; vs diet without canolol
Text: as §2

[4] = system: Salmonella typhimurium TA102; assay: Suppression of ONOO- induced mutant colony formation (modified Ames medium); type: cell-based; conditions: 8 μM canolol; ONOO- at or above 4 μM
Experimental: 1×10^8 CFU of Salmonella typhimurium TA102 was taken into a beaker under sterile condition, then ONOO^− was continuously infused under stirring to make a predetermined concentration of ONOO^− between 1-800 μM. (FIG. 7A). An aliquot of S. typhimurium at each time point was removed to a petri dish containing modified Ames medium which permits selective growth of only mutant strains, and was cultured. […] The mutant colonies were formed progressively at or above 4 μM of ONOO^−, while they were not formed with addition of 8 μM canolol.

Helicobacter pylori = assay: H. pylori count in mid-stomach tissues of infected gerbils; type: in vivo; conditions: after 12 weeks
Text: as §2
(§4) 8-OHdG is one of the markers of inflammatory disorders that are generated as a result from a reaction of reactive oxygen species with DNA, said reactive oxygen species being derived from inflammatory cells in vivo. The amount of 8-OHdG produced was studied under similar conditions as Example (1) using a conventional fluorescent antibody staining method with the anti-8-OHdG antibody against excised gastric specimens of each group after 12 weeks.

[5] = system: NO production from macrophages; assay: Suppression of NO production from LPS + IFN-γ treated peritoneal macrophages (Gries method); type: cell-based, BALB/c mice; conditions: LPS 1 μg/ml + IFN-γ 0.1 μg/ml, 24 hours
Experimental: Next, the inflammatorily exuded peritoneal macrophages were treated with bacterial (E. coli) lipopolysaccharide (LPS) (1 μg/ml) and interferon-γ (0.1 μg/ml) in vitro, then the amount of NO, the inflammatory mediator released from the macrophages, was quantified as NO3^−+NO2^− by a conventional method (Gries method) [Stuehr D J, et al, J. Exp. Med., 169, 1543-55 (1989)] (FIG. 4). That is, to the 6-week old female BALB/c mice (SPF), 10% proteose peptone (1 ml) was injected intraperitoneally. The exuded peritoneal macrophages were collected by peritoneal puncture using a needled syringe, centrifuged in the presence of 10% heat-inactivated fetal calf serum and washed. The peritoneal macrophages (1×10^5/well), LPS (1 μg/ml), interferon-γ (IFN-γ) (0.1 μg/ml) and variable doses of canolol (5, 12.5, 25, 50, 100 μM) were plated in the plastic microplate (96-well) (Sumitomo Bakelite, Cat. #MS-8096F), and allowed to incubate for 24 hours at 37° C., under 5% CO2 and 95% air. Then, nitrite and nitrate ions in the supernatant were quantified by the Gries method. The culture medium used for the macrophages was RPMI-1640 containing 10% of heat-inactivated fetal calf serum. As control groups, LPS alone, and LPS+IFN-γ without canolol were used. The vertical axis of FIG. 4 indicates the total amount of nitrate and nitrite ions.

[6] = system: stomach tissues of gerbils infected with H. pylori; assay: Infiltration of neutrophils and hyperplasia in stomach tissues, hematoxylin-eosin staining; type: in vivo, Mongolian gerbils; conditions: 12 weeks
Text: as §2
Specimens of Example (1) were prepared 12 weeks after administration. Stomach specimens were prepared and examined under microscope after conventional hematoxylin-eosin staining.

peritoneal macrophages = assay: Effect on survival of macrophages; type: cell-based, BALB/c mice
[7] = system: human embryonic kidney epithelial cells HEK 293; assay: Neutralization of peroxynitrite (SIN-1) toxicity to cultured cells, MTT method; type: cell-based; conditions: SIN-1 100 μM, HEK 293, MTT
Text: as §1

[8] = system: 8-oxodeoxyguanosine (8-OHdG); assay: 8-OHdG production in gastric specimens, fluorescent antibody staining; type: in vivo, Mongolian gerbils; conditions: after 12 weeks
Text: as §2, §4

[9] = system: inducible form of NO synthase (iNOS); assay: Induction of iNOS in gastric lesions infected with H. pylori, immunostaining; type: in vivo, Mongolian gerbils; conditions: immunostaining quantification, 12 weeks, n = 10
Text: as §2, §3

[10] = Hp + MNU, number of gerbils, after 57 weeks
[11] = mid-stomach tissue, 0.1% canolol diet

## Cc1cc(C(C)(C)C)c(O)c(C(C)(C)C)c1 [BHT, 2,6-di-tert-butyl-4-methylphenol]
[1]; Hp + MNU, after 57 weeks
  Incidence of carcinoma, Frequency (%): (39.4) %
  Incidence of carcinoma, Frequency (gerbils with carcinoma/group): 13/33
[1]; [10]
  Incidence of carcinoma, Differentiation: 11
  Incidence of carcinoma, Undifferentiation: 2
[1]; Hp + MNU, vs group I (Hp + MNU), after 57 weeks
  Rate of suppression (%): 6.5%

## Cl.N=c1c[n+](N2CCOCC2)[n-]o1 [SIN-1, 3-(4-morpholinyl) sydnonimine HCl]
[2]
  half-life: 6 h

## C=Cc1cc(OC)c(O)c(OC)c1 [canolol, 4-vinyl-2,6-dimethoxyphenol]
cycloxygenase-2 (COX-2)
  COX-2, Gastric antrum: 0.9 ± 0.2
  COX-2, Gastric corpus: 0.6 ± 0.2
[3]
  inflammation of gastric epithelium: markedly suppressed
[4]
  mutant colony formation by ONOO-: not formed
Helicobacter pylori; in vivo, gerbil stomach
  antibacterial activity: did not show any antibacterial activity
Helicobacter pylori; [11]
  H. pylori count (CFU): 4.42 ± 0.2 CFU
[5]
  effective concentration: 10 to 100 µM
[6]
  gastritis in both gastric antrum and corpus: significantly suppressed
[6]; n = 10
  Hyperplasia, Gastric antrum: 1.2 ± 0.6
  Hyperplasia, Gastric corpus: 0.7 ± 0.2
  Neutrophil infiltration, Gastric antrum: 1.2 ± 0.4
  Neutrophil infiltration, Gastric corpus: 0.9 ± 0.2
Peritoneal macrophages; at 100 μM
  toxicity to macrophages (survival): essentially non-toxic
Peritoneal macrophages; macrophages
  cytotoxic concentration: ≥ 800 µM
[1]; 0.1% canolol vs without canolol
  suppression of the cancer incidence: 64%
[1]; gerbils fed with 0.1% canolol, around 57 weeks
  cancer incidence: 15%
[7]
  concentration that significantly neutralized the toxicity of ONOO-: 12.5 to 50 µM
[8]
  8-OHdG production in vivo: exerted suppressive activity
[8]; [11]
  Amount of 8-OHdG (ratio): 19.6 ± 5.5 ratio
[9]
  iNOS, Gastric antrum: 0.9 ± 0.1
  iNOS, Gastric corpus: 0.5 ± 0.1
